# Results as given in patent US10632106B2, “Methods of cancer treatment with 2-(1′H-Indole-3′-carbonyl)-thiazole-4-carboxylic acid methyl ester” (Ariagen, Inc., priority 2009, dated 2020).
# System: M14 (human skin cancer) xenografts
# Assay: M14 xenograft growth inhibition
# Type: in vivo
# Details: ITE 100-200 mg/kg i.p. once daily
# Description: All the procedures related to animal handling, care, and the treatment in the study were performed following guidelines of KeyGen Biotechn Co., Ltd. (Nanjing, China), a contract research organization we hired, based on the guidance of the Association for Assessment and Accreditation of Laboratory Animal Care (AAALAC). Animals were checked for any effects of tumor growth and drug treatment on normal behavior such as mobility, food and water consumption, body weight gain/loss (bodyweights were measured every two days), eye/hair matting, and any other abnormal effect. Death and observed clinical signs were recorded. Individual animals with a tumor volume exceeding 3,000 mm^3 or animals of a group with a mean tumor volume exceeding 2,000 mm^3 were euthanized. In addition, animals showing signs of severe distress and/or pain or losing the capability of accessing adequate food or water were humanely sacrificed.
# Cell lines HCT116, Siha, MFC were cultured in DMEM medium (high glucose) supplemented with 10% fetal bovine serum (FBS), SW116 and T24 in RPMI-1640 medium with 10% FBS, M14 and A375 in DMEM medium (high glucose) with 10% calf serum (CS), SGC7901 and Ketr-3 in RPMI-1640 medium with 10% CS, and CFPAC-1 in IMDM medium with 10% FBS. All of the cells were cultured, in the presence of 100 U/ml penicillin and 100 μg/ml streptomycin, at 37° C. in an atmosphere of 5% CO2 in air. […] The cells growing in an exponential phase were harvested and counted for tumor inoculation. Cell lines 5180 and U14 were maintained in ascites (peritoneal cavity fluid) of mice and were harvested and counted for tumor inoculation. […]
# Tumor volume was measured every two days in two dimensions using a caliper and the volume was calculated with a formula of: V=0.5 a×b^2, where a and b are the long and short diameter (in mm) of a tumor, respectively. […] The TGD was calculated as: TGD=T−C, where T was the time (in days) required for tumors in a drug treated group to reach a predetermined mean tumor volume and C the time (in days) in the control group to reach the same volume. […]
smiles,measurement,setting,value
"COC(=O)c1csc(C(=O)c2c[nH]c3ccccc23)n1 [ITE, 2-(1′H-indole-3′-carbonyl)-thiazole-4-carboxylic acid methyl ester]",TGD,"TGD at Vol. 1,000",5 days
same,TGI (%),"TGI at day 26, TGI=(1−ΔT/ΔC)×100%",48%
same,Weight Loss,end of therapy relative to beginning,15%
